Data as given in US20070129385A1, “Amorphous valganciclovir hydrochloride” (priority 2003, published 2007).
Where a name gives a salt, the structure may show the parent alone.

Experiments:
human cytomegalovirus = conditions: in vitro and in vivo; cited from earlier work
[1] = administered orally; cited from earlier work
[2] = storage stability of the solid amorphous form; assay type: physicochemical
Description: Solid amorphous valganciclovir hydrochloride is provided herein. The amorphous valganciclovir hydrochloride can be produced with no detectable crystalline valganchloride hydrochloride present, based on XRD investigations having a limit of detection of 0.5%.
The mixture of amorphous valganciclovir hydrochloride containing some crystalline form is then substantially converted to an amorphous form by dissolving it in water (optionally containing an organic solvent) followed by spray-drying of the solution as described earlier. Crystalline formation at this stage can be inhibited by storage under nitrogen in the strict absence of atmosphere or other water. The amorphous material has been found stable for up to at least 3 months with proper storage.

time for which the material was found stable ([2]; proper storage (under nitrogen, absence of water))	Structure (SMILES)	replication of human cytomegalovirus (human cytomegalovirus)	rate of absorption [1]	stability on storage ([2]; stored under controlled humidity conditions)	stability profile compared with the crystalline form ([2]; versus existing crystalline form)
–	Nc1nc(O)c2ncn(COC(CO)CO)c2n1 [Ganciclovir]	inhibits replication of human cytomegalovirus in vitro and in vivo	very low rate of absorption	–	–
at least 3 months	CC(C)[C@@H](N)C(=O)OCC(CO)OCn1cnc2c(O)nc(N)nc21 (stereo partly drawn) [Amorphous valganciclovir hydrochloride, L-valinate ester of 2-(2-amino-1,6-dihydro-6-oxo-purin-9-yl)-methoxy-3-hydroxy-1-propanyl hydrochloride salt]	–	–	stable when stored under controlled humidity conditions	superior stability profile to the existing crystalline form
